According to PMC11941218, “Juglone-Bearing Thiopyrano[2,3-d]thiazoles Induce Apoptosis in Colorectal Adenocarcinoma Cells” (Cells, 2025):

Experiments:
[1] = test system: HT-29 colorectal adenocarcinoma cells; test: Apoptosis assay, FITC-Annexin V/propidium iodide flow cytometry; type: cell-based, human; conditions: HT-29, 24 h; Les-6547 5 μM, Les-6557 10 μM
Protocol: The pro-apoptotic effects of the tested compounds were assessed using the FITC Annexin V Apoptosis Detection Kit II in conjunction with a BD FACSCanto II flow cytometer (BD Biosciences, San Jose, CA, USA). The experimental procedure adhered to the manufacturer’s instructions and previously established protocols.
Initially, HT-29 cells were seeded in 6-well plates at a density of 300,000 cells per well in 2 mL of culture medium and incubated overnight to allow adherence. Subsequently, the cells were treated with Les-6547 (5 µM) and Les-6557 (10 µM) for 24 h. After exposure to the compounds, the cells were rinsed twice with cold PBS and suspended in the binding buffer provided in the kit. FITC Annexin V and propidium iodide (PI) were added to the 100 µL cell suspension, followed by 15-min incubation at room temperature, shielded from light.
After the incubation, 300 µL of binding buffer was added to each sample, and analysis was performed using the flow cytometer, with 10,000 events recorded per sample. Data were processed using FACSDiva software (version 6.1.3, BD Biosciences, San Jose, CA, USA). Calibration of the instrument was ensured using a BD Cytometer Setup and Tracking Beads (BD Biosciences, San Diego, CA, USA).

Human blood lymphocytes = test: MTT assay; type: cell-based; conditions: for IC50: Lymphocyte, human blood lymphocytes, 72 h, M ± SD, n = 3; for decrease of viability compared to control cells: lymphocytes from a healthy donor, 100 µM
Protocol: Lymphocytes from human peripheral blood were isolated with sodium heparin (10 U/mL) as an anticoagulant. Isolation was performed through a density gradient method with the Gradisol G, following a modified procedure. Peripheral blood was mixed with Gradisol G in equal proportions (1:1) and centrifuged at 400× g for 30 min at room temperature. The cells were collected, washed in phosphate-buffered saline (PBS), and treated with a hypotonic solution to remove residual erythrocytes. Lymphocytes were activated by phytohemagglutinin-L (1 µg/mL) and cultured in RPMI-1640 medium supplemented with 20% fetal bovine serum under controlled conditions of 95% air and 5% CO2 [27].
The metabolic activity of cells exposed to the tested derivatives, doxorubicin, and DMSO, was assessed using an MTT assay according to the manufacturer’s protocol (Sigma-Aldrich, St. Louis, MO, USA). Adherent cells were seeded into 96-well plates (5000–10,000 cells in 100 µL of growth medium per well) and allowed to adhere overnight before treatment. For lymphocytes, activation with phytohemagglutinin-L (1 µg/mL) was performed for 24 h, after which they were seeded in 96-well plates at a density of 100,000 cells/well in RPMI-1640 medium supplemented with 20% FBS. The test substances, including Les-6547, Les-6557, and doxorubicin, were added to 100 µL of culture medium to achieve final concentrations of 0 µM, 0.1 µM, 1 µM, 2.5 µM, 10 µM, and 100 µM for all compounds, and the cells were further incubated for 24, 48, or 72 h. DMSO-treated cells served as the control. Then, 20 µL of MTT solution (5 mg/mL) was added and incubated for 2–4 h to allow formazan crystal formation. The formazan crystals were then solubilized by adding DMSO. The absorbance of formazan was measured at 570 nm using a ThermoScientific Evolution 201 UV-VIS spectrophotometer (ThermoFisher Scientific, Waltham, MA, USA). The control condition with 0.5% DMSO was considered 100% viability. The IC50 values for the compounds were determined using GraphPad Prism 8 and 9 software (GraphPad Software, Boston, MA, USA).

[2] = test system: DLD-1 colorectal adenocarcinoma cells; test: [^3H]-thymidine incorporation assay (DNA biosynthesis); type: cell-based; conditions: Homo sapiens; DLD-1, 24 h, M ± SD, n = 3
Protocol: (§1) The anti-proliferative potential of Les-6547 and Les-6557 was analyzed using a clonogenic assay and incorporation of radioactive [^3H]-thymidine into the DNA of colorectal adenocarcinoma HT-29 and DLD-1 cell lines after 24 h of incubation with various concentrations of the tested agents.
(§2) Next, we examined the effects of the tested compounds on the proliferative activity of human colorectal adenocarcinoma cells by assessing their ability to influence DNA biosynthesis using the thymidine incorporation assay (Figure 6, Table 8). Les-6547 decreased DNA biosynthesis in DLD-1 cells to 50% at a concentration of 2.19 ± 0.39 µM.

[3] = test system: HT-29 colorectal adenocarcinoma cells; test: as above; type: cell-based; conditions: Homo sapiens; HT-29, 24 h, M ± SD, n = 3
Protocol: as §1, §2

[4] = test system: HT-29 colorectal adenocarcinoma cells; test: Intracellular total ROS activity assay (flow cytometry); type: cell-based, human; conditions: HT-29, 24 h; control 3.8%
Protocol: Total reactive oxygen species (ROS) activity was assessed using an Intracellular Total ROS Activity Assay Kit. Following 24 h incubation with studied derivatives, HT-29 cells were prepared for analysis with the flow cytometer according to the protocol detailed in the literature. The cells were washed twice with cold PBS, followed by the addition of the assay buffer provided in the kit. The cells, at a concentration of 1 × 10⁶ cells/mL, were then exposed to 10 µL of Total ROS Green reagent and incubated for one hour at 37 °C in a CO2 incubator. After the incubation period, the cells were rinsed with the assay buffer. Finally, the cells were resuspended in 500 µL of assay buffer and analyzed using a BD FACSCanto II flow cytometer in conjunction with FACSDiva 6.1.3 software (both BD Biosciences Systems, San Jose, CA, USA). The BD Cytometer Setup and Tracking Beads (BD Biosciences, San Diego, CA, USA) were used for calibration.

caspase 10 = test: Caspase 10 activity assay (FAM-FLICA, flow cytometry) in HT-29 cells; type: cell-based, human; conditions: HT-29, 24 h; Les-6547 5 μM, Les-6557 10 μM
Protocol: Caspase activity for initiator caspases (8, 9, and 10) and executioner caspases (3/7) was evaluated using a FAM-FLICA® Caspase Assay kit (ImmunoChemistry Technologies, Bloomington, MN, USA) according to the manufacturer’s instructions, as described in previous studies. HT-29 cells were exposed to Les-6547 (5 µM) and Les-6557 (10 µM) for 24 h. Following this, the cells were harvested, washed twice with cold PBS, and resuspended in Apoptosis Wash Buffer (ImmunoChemistry Technologies, Bloomington, MN, USA) at a final concentration of 5 × 10^5 cells/mL.
Subsequently, 290 µL of the cell suspension was transferred into individual tubes, to which 10 µL of freshly prepared FLICA solution (1:5 dilution in PBS) was added. The mixture was gently pipetted and incubated for 1 h at 37 °C in the dark. After the incubation, the cells were washed twice with 2 mL of Apoptosis Wash Buffer, centrifuged, and resuspended in 300 µL of the same buffer. The prepared samples were immediately analyzed using a BD FACSCanto II flow cytometer (10,000 events). Data were processed using FACSDiva 6.1.3 software (BD Biosciences Systems, San Jose, CA, USA). Flow cytometer calibration was conducted using a BD Cytometer Setup and Tracking Beads (BD Biosciences, San Diego, CA, USA).

| IC50 [2] [µM] | IC50 [3] [µM] | Structure (SMILES) | apoptotic cells (sum of early and late apoptotic cells) [1] [%] | IC50 (Human blood lymphocytes) [µM] | decrease of viability compared to control cells (Human blood lymphocytes) [%] | increase of the number of ROS-positive cells compared with the control cells [4] | Cells with active caspase 10 (caspase 10) [%] |
| --- | --- | --- | --- | --- | --- | --- | --- |
| 2.19 ± 0.39 | 2.21 ± 0.39 | O=C1C2=C(C(=O)c3c(O)cccc31)C(c1cc(Cl)ccc1O)c1sc(=O)[nH]c1S2 (stereo not shown) [Les-6547] | 36.2 | > 100 | 25 | approximately 10 fold | – |
| 4.65 ± 0.02 | 2.91 ± 0.38 | O=C1C2=C(C(=O)c3c(O)cccc31)C(c1ccc(Cl)cc1)c1sc(=O)[nH]c1S2 (stereo not shown) [Les-6557] | 31.9 | > 100 | 25 | approximately 10 fold | 40.9 |
